# From patent US10294230B2, “3,3-difluoropiperidine carbamate heterocyclic compounds as NR2B NMDA receptor antagonists” (Rugen Holdings (Cayman) Limited, priority 2015, dated 2019)
# Assays:
# NR2B = NR2B (Homo sapiens (Human), UniProt Q05586+Q13224); settings: cited from earlier work
# [1] = system: immobility in forced swim test; test: Forced Swim Test (FST) in rats; type: in vivo
# Source text: (§1) The forced swim test (FST) also known at the behavioural despair test was used to evaluate antidepressant activity (Porsolt et al., 1977 Arch. Int. Pharmacodyn. 229: 327-336, Porsolt et al., 1977, Eur. J. Pharmacol. 47:379-391). Mice or rats that are forced to swim in a situation from which they cannot escape, rapidly become immobile. Drugs with antidepressant activity, such as imipramine, reduce the amount of time spent in the immobile state. Therefore, the amount of immobility time during a test conducted after drug administration represents a useful indicator of antidepressant activity (Lucki et al 2001 Psychopharmacology 155:315-322; Porsolt et al., 1977, Nature 266:730-732).
# (§2) Test compound E1-8.2 was administered as the free base.
# Male Wistar rats weighing 197-251 g were used for the rat test. Rats were evaluated according to a two-session procedure with a swimming session of 15 minutes on the first day of the experiment (Session 1) followed 24 hours later by a 5-minute swimming test (Session 2). […] Rats were placed in the water 24 h later for 5 minutes (Session 2) and the duration of immobility was measured.
# Animals were observed by a blinded observer. […] The amount of time each animal spent in the immobile state (and the latency to the first bout of immobility) was recorded and used for statistical analysis of compound effect. […]
# [2] = system: immobility in forced swim test; test: Forced Swim Test (FST) in mice; type: in vivo
# Source text: as §1, §2
# Mice were evaluated in a single swimming test session of 6 minutes. Mice were placed in a transparent plastic cylinder 24 cm high with a diameter of 13 cm containing 10 cm of water with ambient temperature control generally from 22±2° C. Mice were placed in the water for 6 minutes and the duration of immobility during the last 4 minutes was measured.
# Animals were observed by a blinded observer. The observer judged the animal to be immobile when it ceased all activity (struggling, swimming, jumping etc.) and floated passively atop the water. The amount of time each animal spent in the immobile state (and the latency to the first bout of immobility) was recorded and used for statistical analysis of compound effect. Group differences were evaluated by student's t-test (reference substance) or one-way ANOVA followed by post-hoc Dunnett's test (test substances). […]
# Male mice (strain NLMN) weighing 25-35 g were used for testing. […] The mice were videotaped for 6 minutes, and the last 4 minutes of video were analyzed by a blinded observer off-line. […] The amount of time each animal spent in the immobile state was recorded and used for statistical analysis of compound effect. Group differences were evaluated by student's t-test or one-way ANOVA followed by post-hoc Dunnett's test. […]
# NR2B, sequence (Q13224 27-1484, species assumed, other chains not shown): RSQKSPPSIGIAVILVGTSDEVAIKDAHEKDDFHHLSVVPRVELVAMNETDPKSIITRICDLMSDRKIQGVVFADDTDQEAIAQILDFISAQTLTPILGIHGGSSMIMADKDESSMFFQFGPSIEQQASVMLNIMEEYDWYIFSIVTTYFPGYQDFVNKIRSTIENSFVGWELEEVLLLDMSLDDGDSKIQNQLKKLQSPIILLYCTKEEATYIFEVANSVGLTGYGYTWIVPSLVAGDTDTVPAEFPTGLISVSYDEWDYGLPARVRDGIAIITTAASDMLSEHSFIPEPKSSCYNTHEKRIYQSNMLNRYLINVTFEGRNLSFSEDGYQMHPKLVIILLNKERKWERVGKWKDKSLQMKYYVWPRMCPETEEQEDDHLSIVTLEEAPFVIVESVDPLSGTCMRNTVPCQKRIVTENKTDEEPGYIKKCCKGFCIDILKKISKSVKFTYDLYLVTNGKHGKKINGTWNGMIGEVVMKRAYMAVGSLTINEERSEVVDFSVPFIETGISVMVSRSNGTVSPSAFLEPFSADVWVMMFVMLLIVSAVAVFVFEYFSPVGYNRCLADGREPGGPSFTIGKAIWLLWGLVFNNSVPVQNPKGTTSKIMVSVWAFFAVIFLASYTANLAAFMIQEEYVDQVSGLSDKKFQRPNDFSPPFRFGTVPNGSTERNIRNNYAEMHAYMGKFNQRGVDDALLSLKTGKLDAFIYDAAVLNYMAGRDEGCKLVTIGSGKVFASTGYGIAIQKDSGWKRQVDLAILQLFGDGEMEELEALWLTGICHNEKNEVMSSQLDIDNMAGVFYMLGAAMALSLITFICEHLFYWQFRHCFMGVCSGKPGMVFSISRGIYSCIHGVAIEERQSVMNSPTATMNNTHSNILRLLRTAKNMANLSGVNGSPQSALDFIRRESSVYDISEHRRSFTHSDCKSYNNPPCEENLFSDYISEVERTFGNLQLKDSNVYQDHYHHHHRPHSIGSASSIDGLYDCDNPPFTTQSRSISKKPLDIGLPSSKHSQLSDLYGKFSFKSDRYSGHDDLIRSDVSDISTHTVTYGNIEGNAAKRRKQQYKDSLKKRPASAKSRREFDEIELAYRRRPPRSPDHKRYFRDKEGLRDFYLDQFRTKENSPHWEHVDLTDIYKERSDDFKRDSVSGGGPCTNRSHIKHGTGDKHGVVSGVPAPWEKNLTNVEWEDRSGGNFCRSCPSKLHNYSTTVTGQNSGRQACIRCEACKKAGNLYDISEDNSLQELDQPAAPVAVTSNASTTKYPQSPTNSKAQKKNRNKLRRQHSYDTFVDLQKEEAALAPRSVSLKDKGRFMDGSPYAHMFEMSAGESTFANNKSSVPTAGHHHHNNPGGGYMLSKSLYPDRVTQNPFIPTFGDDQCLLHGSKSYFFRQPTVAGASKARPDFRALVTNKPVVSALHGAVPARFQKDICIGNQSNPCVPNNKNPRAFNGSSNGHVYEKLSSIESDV
SMILES,potency against NR2B (NR2B) [nM],"immobility time, antidepressant activity ([1]; 32 mpk i.p. 3 times: 24 h, 4 h and 30 min before Session 2)","immobility time, antidepressant activity ([1]; 64 mpk p.o. 3 times: 24 h, 4 h and 60 min before Session 2)","immobility time, antidepressant activity ([2]; 32 mpk i.p. once 30 min before the test)","immobility time, antidepressant activity ([2]; 64 mpk p.o. once 60 min before the test)","immobility time, antidepressant activity ([2]; 128 mpk p.o. once 60 minutes before the test on Day 7)"
"Cc1ccc(COC(=O)N2CCC(CNc3ncccn3)C(F)C2)cc1 (single isomer, unassigned) [3R,4S enantiomer]",25.5,–,–,–,–,–
CN(C)CCCN1c2ccccc2CCc2ccccc21 [imipramine],–,expected antidepressant activity,expected antidepressant activity,expected antidepressant activity,expected antidepressant activity,expected antidepressant activity
